Measurements from US20180111913A1, “SUBSTITUTED BENZOFURAN DERIVATIVES AS NOVEL ANTIMYCOBACTERIAL AGENTS” (priority 2015, published 2018).

Target: Mtb Pks13-TE domain (wild-type) (Mycobacterium tuberculosis, UniProt I6X8D2)
Assay: biochemical
Assay type: biochemical
Details: Pks13-TE, 20 μM 4-MUH; read-out: IC50

Chain of Mtb Pks13-TE domain (wild-type) (I6X8D2 1451-1733): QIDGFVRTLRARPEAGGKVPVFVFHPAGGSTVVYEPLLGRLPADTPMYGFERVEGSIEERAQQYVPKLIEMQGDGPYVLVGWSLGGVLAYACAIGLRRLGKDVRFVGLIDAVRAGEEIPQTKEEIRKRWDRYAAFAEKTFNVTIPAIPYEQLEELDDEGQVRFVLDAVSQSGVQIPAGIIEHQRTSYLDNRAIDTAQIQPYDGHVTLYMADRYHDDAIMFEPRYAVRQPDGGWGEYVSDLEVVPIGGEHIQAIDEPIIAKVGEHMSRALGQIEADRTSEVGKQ

SMILES | IC50 [µM]
CNC(=O)c1c(-c2ccccc2)oc2ccc(O)c(CCN3CCN(CCO)CC3)c12 [compound 157] | > 40
Cc1nc2c(CN3CCCC3)c(O)ccc2[nH]1 [compound 111] | 10
CNC(=O)c1c(-c2ccccc2)oc2ccc(O)c(CCN3CCCCC3)c12 [compound 143] | > 20
CNC(=O)c1c(-c2ccccc2)oc2ccc(O)c(CCN(C(C)C)C(C)C)c12 [compound 140] | > 40
CCOC(=O)c1c(-c2ccccc2)oc2ccc(O)c(CCCN3CCC[C@H]3C)c12 [compound 180] | 1.9
CCOC(=O)c1c(-c2ccccc2)oc2ccc(O)c(CCC3CCNCC3)c12 [compound 176] | > 40
CNC(=O)c1c(-c2ccccc2)oc2ccc(O)c(CCN3CCC(CO)CC3)c12 [compound 153] | > 40
CCOC(=O)c1c(-c2ccc(F)cc2)oc2cc(O)cc(CCNC(CO)CO)c12 [compound 78] | 13
CCOC(=O)c1c(-c2ccc(F)cc2)oc2cc(O)cc(CCNC3CCC(O)CC3)c12 (stereo not drawn) [compound 225] | > 40
CNC(=O)c1c(-c2ccccc2)oc2ccc(O)c(CCN3CCC(C(F)(F)F)CC3)c12 [compound 232] | > 20
CNC(=O)c1c(-c2ccccc2)oc2ccc(O)c(CCCN3CC(O)C(O)C3)c12 (stereo not drawn) [compound 163] | > 40
CNC(=O)c1c(-c2ccccc2)oc2ccc(O)c(CCCN3CCC4(CC3)CC(=O)C4)c12 [compound 207] | 10
CCOC(=O)c1c(-c2ccc(F)cc2)oc2cc(O)cc(CCNC(=O)C(C)N)c12 (stereo not drawn) [compound 81] | > 40
CCOC(=O)c1c(-c2ccc(F)cc2)oc2cc(O)cc(CCNCC(O)CO)c12 (stereo not drawn) [compound 79] | > 20
CCOC(=O)c1c(-c2ccccc2)oc2ccc(O)c(CCN3[C@H](C)CCC[C@@H]3C)c12 [compound 150] | > 40
CNC(=O)c1c(-c2ccccc2)oc2ccc(O)c(CCN3CCC(CO)(CBr)C3)c12 (stereo not drawn) [compound 258] | 2.5
CCOC(=O)c1c(-c2ccc(F)cc2)oc2cc(O)cc(CC[N+](C)(C)C)c12 [compound 75] | > 20
Cc1nc2c(CN3CCC(C)CC3)c(O)ccc2[nH]1 [compound 9] | 10
CNC(=O)c1c(-c2ccccc2)oc2ccc(O)c(CCCNCc3ncco3)c12 [compound 190] | > 40
CCOC(=O)c1c(-c2ccccc2)oc2ccc(O)c(CCCNCc3ccoc3)c12 [compound 255] | 2.1

SMILES | IC50 [µM]
CCOC(=O)c1c(-c2ccc(F)cc2)oc2cc(O)cc(CCN)c12 [compound 242] | > 20
CCOC(=O)c1c(-c2ccccc2)oc2ccc(O)c(CCCN3CCSC3)c12 [compound 173] | 5
CNC(=O)c1c(-c2ccccc2)oc2ccc(O)c(CCCNCC(C)c3ncco3)c12 (stereo not drawn) [compound 196] | > 20
CCOC(=O)c1c(-c2ccc(F)cc2)oc2cc(O)cc(CCNCCN)c12 [compound 80] | > 40
CNC(=O)c1c(-c2ccc(F)cc2)oc2cc(O)cc(CCN[C@@H](Cc3ccco3)C(=O)O)c12 [compound 262] | > 40
CNC(=O)c1c(-c2ccccc2)oc2ccc(O)c(CCCN3CCC3)c12 [compound 271] | 7
CC(C)NCCc1cc(O)cc2oc(-c3ccc(F)cc3)c(CO)c12 [compound 76] | > 20
CCOC(=O)c1c(-c2ccccc2)oc2ccc(O)c(CN3CCCCC3=O)c12 [compound 52] | > 20
CNC(=O)c1c(-c2ccccc2)oc2ccc(O)c(CCN[C@@H](Cc3cnc[nH]3)C(=O)NC)c12 [compound 259] | 1
CNC(=O)c1c(-c2ccccc2)oc2ccc(O)c(CCN3CCCC(CO)C3)c12 (stereo not drawn) [compound 154] | > 20
CNC(=O)c1c(-c2ccccc2)oc2ccc(O)c(CCN3CCCCC3CCO)c12 (stereo not drawn) [compound 156] | > 40
CCOC(=O)c1c(-c2ccccc2)oc2ccc(O)c(CCCN3CCCC(CO)C3)c12 (stereo not drawn) [compound 169] | > 40
CCOC(=O)c1c(-c2ccccc2)oc2ccc(O)c(CCN3CCC(CCCC(N)=O)C3)c12 (stereo not drawn) [compound 187] | 0.5
CCOC(=O)c1c(-c2ccccc2)oc2ccc(O)c(CN3CCC(F)(F)CC3)c12 [compound 119] | 0.8
CCOC(=O)c1c(-c2ccccc2)oc2ccc(O)c(CCCN3CCCC3CCO)c12 (stereo not drawn) [compound 170] | 4.3
CCOC(=O)c1c(-c2ccccc2)oc2ccc(O)c(CCNC(C(=O)O)C(F)(F)F)c12 (stereo not drawn) [compound 247] | > 40
CNC(=O)c1c(-c2ccccc2)oc2ccc(O)c(CCN3CCC(CCO)CC3)c12 [compound 158] | 20
CCOC(=O)c1c(-c2ccccc2)oc2ccc(O)c(CCN3CCSC3C)c12 (stereo not drawn) [compound 177] | 1
CNC(=O)c1c(-c2ccccc2)oc2ccc(O)c(CCCN3CCCC4(CC(=O)C4)C3)c12 [compound 194] | > 40
CCOC(=O)c1c(-c2ccc(F)cc2)oc2cc(O)cc(CCNC(=O)C3CCCN3)c12 (stereo not drawn) [compound 226] | > 40

SMILES | IC50 [µM]
CCOC(=O)c1c(-c2ccccc2)oc2ccc(O)c(CCCN3CC(CO)C3)c12 [compound 198] | 5
CCOC(=O)c1c(-c2ccccc2)oc2ccc(O)c(CCNC(CO)Cc3cnc[nH]3)c12 (stereo not drawn) [compound 256] | 1.5
CNC(=O)c1c(-c2ccccc2)oc2ccc(O)c(CCN[C@@H](Cc3cnc[nH]3)C(=O)OC)c12 [compound 250] | 2.4
CNC(=O)c1c(-c2ccccc2)oc2ccc(O)c(CCC3CCOC3=O)c12 (stereo not drawn) [compound 240] | > 40
CCOC(=O)c1c(-c2ccc(F)cc2)oc2cc(O)cc(CCNC(=O)OCc3ccccc3)c12 [compound 243] | > 40
CNC(=O)c1c(-c2ccccc2)oc2ccc(O)c(CCNCC3CCCO3)c12 (stereo not drawn) [compound 252] | 1.6
CNC(=O)c1c(-c2ccccc2)oc2cc(O)cc(CN3CCC(O)CC3)c12 [compound 68] | > 20
CNC(=O)c1c(-c2ccccc2)oc2ccc(O)c(CCNC3CCC3)c12 [compound 147] | 3.5
CCOC(=O)c1c(-c2ccccc2)oc2ccc(O)c(CCCN3CCCC3C/C=C/C(=O)NC)c12 (stereo not drawn) [compound 181] | 2.5
CCOC(=O)c1c(-c2ccccc2)oc2ccc(O)c(CCNC3CCOCC3)c12 [compound 241] | > 20
CNC(=O)c1c(-c2ccccc2)oc2ccc(O)c(CCN3CCCCC3CO)c12 (stereo not drawn) [compound 155] | > 40
CCOC(=O)c1c(-c2ccccc2)oc2ccc(O)c(CCN3CC4COCC4C3)c12 (stereo not drawn) [compound 266] | 10
CNC(=O)c1c(-c2ccccc2)oc2ccc(O)c(CCN3CCCCC3C(F)(F)F)c12 (stereo not drawn) [compound 237] | > 20
CCOC(=O)c1c(-c2ccccc2)oc2ccc(O)c(CCN3CCC4(COC4)C3)c12 [compound 264] | 2.5
CNC(=O)c1c(-c2ccccc2)oc2ccc(O)c(CCN3CCCC(C(F)(F)F)C3)c12 (stereo not drawn) [compound 233] | > 10
CN(C)CCc1c(O)ccc2oc(-c3ccc(O)cc3)c(C(=O)N(C)C)c12 [compound 210] | 12
CCOC(=O)c1c(-c2ccccc2)oc2ccc(O)c(CCN3CCC(CCCCO)C3)c12 (stereo not drawn) [compound 178] | 2
CCOC(=O)c1c(-c2ccccc2)oc2ccc(O)c(CCN3CCCOC3)c12 [compound 193] | 5
CNC(=O)c1c(-c2ccccc2)oc2ccc(O)c(CCN3CCNC(=O)C3)c12 [compound 139] | > 40

Same assay, conditions: Pks13-TE; read-out: IC50 (μM), given as NB / NI

SMILES | IC50 [µM]
CCOC(=O)c1c(-c2ccccc2)oc2ccc(OC)c(CC3CCCCC3)c12 [compound 15] | > 20
